Assay results as given in patent publication US20240058422A1, “GLUCAGON-LIKE PEPTIDE-1 RECEPTOR ANTAGONISTS” (INDIANA UNIVERSITY RESEARCH AND TECHNOLOGY CORPORATION, priority 2022, published 2024).
Starred links: 1 amine or outer side, 2 acyl side, 3 side chain; linkers in the order of their positions; H or OH if unused. Residues, ends and D or L forms follow the SMILES beside them. Groups on a side chain read outwards from the residue. *: point of attachment. γGlu = O=C(O)[C@H](CCC(=O)[*:2])N[*:1]; Palmitoyl = CCCCCCCCCCCCCCCC(=O)*; AEEA = NCCOCCOCC(=O)O

Legend:
physchem = details: pH 7.7, Solubility 80 mM AmeBicarb pH7.7
GLP-1R = GLP-1R (Homo sapiens, UniProt P43220); assay: GLP-1 receptor-mediated cAMP induction, luciferase reporter gene antagonism assay; type: cell-based; design: host or cells: HEK 293; details: Table 3; amino acid substitution variants of Jant4-K40; antagonism of 0.05 nM GLP-1, HEK 293 cells; read-out: Bioactivity IC50
In short: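 HEK 293 cells cotransfected with human GLP-1 receptor and CRE-luciferase were serum-deprived 16 h, then given serial peptide dilutions followed by 0.05 nM GLP-1 and incubated 5 h at 37° C.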

GLP-1R, sequence (P43220 24-463): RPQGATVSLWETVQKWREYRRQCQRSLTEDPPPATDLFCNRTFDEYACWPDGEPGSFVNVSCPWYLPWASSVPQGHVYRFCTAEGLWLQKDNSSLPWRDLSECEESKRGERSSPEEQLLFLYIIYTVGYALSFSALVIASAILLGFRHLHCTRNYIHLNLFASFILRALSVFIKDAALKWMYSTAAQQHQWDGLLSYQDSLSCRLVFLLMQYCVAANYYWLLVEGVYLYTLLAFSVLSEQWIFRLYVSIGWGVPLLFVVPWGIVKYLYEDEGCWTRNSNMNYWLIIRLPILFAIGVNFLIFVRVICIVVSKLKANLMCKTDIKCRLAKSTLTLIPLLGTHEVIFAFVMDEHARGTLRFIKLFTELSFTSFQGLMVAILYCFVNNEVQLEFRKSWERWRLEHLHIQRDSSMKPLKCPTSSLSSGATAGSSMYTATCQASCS

Row | Structure (SMILES) | solubility (physchem) [mg/mL] | IC50 (GLP-1R) [nM]
1 | CCCCCCCCCCCCCCCC(=O)NCCCC[C@H](NC(=O)[C@H](CO)NC(=O)[C@@H]1CCCN1C(=O)[C@@H]1CCCN1C(=O)[C@@H]1CCCN1C(=O)[C@H](C)NC(=O)CNC(=O)[C@H](CO)NC(=O)[C@H](CO)NC(=O)[C@@H]1CCCN1C(=O)CNC(=O)CNC(=O)[C@H](CCCNC(=N)N)NC(=O)[C@@H](NC(=O)[C@H](CC(C)C)NC(=O)[C@H](Cc1c[nH]c2ccccc12)NC(=O)[C@H](CCC(=O)O)NC(=O)[C@@H](NC(=O)[C@H](Cc1ccccc1)NC(=O)[C@H](CCC(=O)O)NC(=O)[C@H](CCCNC(=N)N)NC(=O)[C@@H](NC(=O)[C@H](C)NC(=O)[C@H](CCC(N)=O)NC(=O)[C@H](CCC(=O)O)NC(=O)[C@H](CCC(=O)O)NC(=O)[C@H](CC(C)C)NC(=O)[C@H](Cc1ccc(O)cc1)NC(=O)[C@H](CCCNC(=N)N)NC(=O)[C@H](CO)NC(=O)[C@@H](NC(=O)[C@@H](N)CC(=O)O)C(C)C)C(C)C)[C@@H](C)CC)C(C)C)C(N)=O [compound 74] (H-DVSRYLEEQAVREFIEWLVRGGPSSGAPPPSK(Palmitoyl)-NH2; N-terminus assumed) | > 20 | 15
2 | CCCCCCCCCCCCCCCC(=O)N[C@@H](CCC(=O)NCCOCCOCC(=O)NCCCC[C@H](NC(=O)[C@H](CO)NC(=O)[C@@H]1CCCN1C(=O)[C@@H]1CCCN1C(=O)[C@@H]1CCCN1C(=O)[C@H](C)NC(=O)CNC(=O)[C@H](CO)NC(=O)[C@H](CO)NC(=O)[C@@H]1CCCN1C(=O)CNC(=O)CNC(=O)[C@H](CCCNC(=N)N)NC(=O)[C@@H](NC(=O)[C@H](CC(C)C)NC(=O)[C@H](Cc1c[nH]c2ccccc12)NC(=O)[C@H](C)NC(=O)[C@@H](NC(=O)[C@H](Cc1ccccc1)NC(=O)[C@H](CCC(=O)O)NC(=O)[C@H](CCCNC(=N)N)NC(=O)[C@@H](NC(=O)[C@H](C)NC(=O)[C@H](CCC(N)=O)NC(=O)[C@H](CCC(=O)O)NC(=O)[C@H](CCC(=O)O)NC(=O)[C@H](CC(C)C)NC(=O)[C@H](Cc1ccc(O)cc1)NC(=O)[C@H](CO)NC(=O)[C@H](CO)NC(=O)[C@@H](NC(=O)[C@@H](N)CC(=O)O)C(C)C)C(C)C)[C@@H](C)CC)C(C)C)C(=O)O)C(=O)O [compound 77] (H-DVSSYLEEQAVREFIAWLVRGGPSSGAPPPSK([AEEA-γGlu-Palmitoyl])-OH) | > 20 | 13
3 | CCCCCCCCCCCCCCCC(=O)N[C@@H](CCC(=O)NCCOCCOCC(=O)NCCCC[C@H](NC(=O)[C@H](CO)NC(=O)[C@@H]1CCCN1C(=O)[C@@H]1CCCN1C(=O)[C@@H]1CCCN1C(=O)[C@H](C)NC(=O)CNC(=O)[C@H](CO)NC(=O)[C@H](CO)NC(=O)[C@@H]1CCCN1C(=O)CNC(=O)CNC(=O)[C@H](CCCNC(=N)N)NC(=O)[C@@H](NC(=O)[C@H](CC(C)C)NC(=O)[C@H](Cc1c[nH]c2ccccc12)NC(=O)[C@H](CCC(=O)O)NC(=O)[C@@H](NC(=O)[C@H](Cc1ccccc1)NC(=O)[C@H](CCC(=O)O)NC(=O)[C@H](CCCNC(=N)N)NC(=O)[C@@H](NC(=O)[C@H](C)NC(=O)[C@H](CCC(N)=O)NC(=O)[C@H](CCC(=O)O)NC(=O)[C@H](CCC(=O)O)NC(=O)[C@H](CC(C)C)NC(=O)[C@H](Cc1ccc(O)cc1)NC(=O)[C@H](CO)NC(=O)[C@H](CO)NC(=O)[C@@H](NC(=O)[C@@H](N)CC(=O)O)C(C)C)C(C)C)[C@@H](C)CC)C(C)C)C(=O)O)C(=O)O [compound 78] (H-DVSSYLEEQAVREFIEWLVRGGPSSGAPPPSK([AEEA-γGlu-Palmitoyl])-OH; N-terminus assumed) | > 20 | 19
